According to the Kinase Knowledgebase extract (Sharma et al. 2016):

These molecules were tested against PIK3CG (human) (UniProt P48736) (assay: Inhibition of PIK3CG Kinase Activity).
PIK3CG (human), sequence (P48736 whole entry, looked up): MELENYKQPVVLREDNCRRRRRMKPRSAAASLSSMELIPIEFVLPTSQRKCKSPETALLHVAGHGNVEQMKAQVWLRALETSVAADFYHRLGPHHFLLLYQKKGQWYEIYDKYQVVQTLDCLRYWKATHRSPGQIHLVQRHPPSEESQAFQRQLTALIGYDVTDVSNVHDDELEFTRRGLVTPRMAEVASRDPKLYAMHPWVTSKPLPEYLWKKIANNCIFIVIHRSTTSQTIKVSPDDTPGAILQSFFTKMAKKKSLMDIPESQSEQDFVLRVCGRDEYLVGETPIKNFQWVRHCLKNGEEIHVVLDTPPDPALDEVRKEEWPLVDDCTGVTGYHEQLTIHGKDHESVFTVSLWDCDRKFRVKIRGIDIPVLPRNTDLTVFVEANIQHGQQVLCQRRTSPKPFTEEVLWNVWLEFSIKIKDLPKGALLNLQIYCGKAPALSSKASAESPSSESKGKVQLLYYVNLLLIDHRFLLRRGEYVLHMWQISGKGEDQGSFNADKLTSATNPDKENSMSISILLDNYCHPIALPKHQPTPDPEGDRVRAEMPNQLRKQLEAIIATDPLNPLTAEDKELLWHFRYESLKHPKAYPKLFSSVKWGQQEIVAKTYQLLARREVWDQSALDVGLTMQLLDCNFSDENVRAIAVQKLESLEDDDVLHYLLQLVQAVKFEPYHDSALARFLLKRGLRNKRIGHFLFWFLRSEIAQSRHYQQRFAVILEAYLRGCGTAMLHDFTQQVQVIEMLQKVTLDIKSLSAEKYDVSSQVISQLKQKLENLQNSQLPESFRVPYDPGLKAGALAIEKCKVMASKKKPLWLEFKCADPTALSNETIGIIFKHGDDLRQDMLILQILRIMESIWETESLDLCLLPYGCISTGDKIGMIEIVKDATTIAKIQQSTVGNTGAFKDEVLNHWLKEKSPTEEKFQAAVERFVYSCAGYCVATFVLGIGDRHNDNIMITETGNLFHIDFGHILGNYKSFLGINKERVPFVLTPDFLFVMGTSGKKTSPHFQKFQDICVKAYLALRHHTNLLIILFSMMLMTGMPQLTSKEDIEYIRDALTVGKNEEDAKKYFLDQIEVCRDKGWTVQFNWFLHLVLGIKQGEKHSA

IC50	Structure (SMILES)
< 10 µM	CC(C)(C)NS(=O)(=O)c1cncc(-c2ccc3nc(N)nn3c2)c1
< 10 µM	Nc1nc2ccc(-c3cccc(S(=O)(=O)NCCCCC(=O)O)c3)cn2n1
< 10 µM	Nc1nc2c(F)cc(-c3cncc(C(F)(F)F)c3)cn2n1
< 10 µM	Nc1nc2ccc(-c3cncc(S(=O)(=O)N4CCNCC4)c3)cn2n1
< 10 µM	Nc1nc2ccc(-c3cncc(NS(=O)(=O)c4cccc5ccccc45)c3)cn2n1
< 10 µM	CCN(C)S(=O)(=O)c1cncc(-c2cc(F)c3nc(N)nn3c2)c1
< 10 µM	Nc1nc2ccc(-c3cncc(S(=O)(=O)Nc4ccccc4F)c3)cn2n1
< 10 µM	COc1cccc(NS(=O)(=O)c2cncc(-c3ccc4nc(N)nn4c3)c2)c1
< 10 µM	CN(C(C)(C)C)S(=O)(=O)c1cncc(-c2ccc3nc(N)nn3c2)c1
< 10 µM	COc1ccccc1-c1ccc2nc(N)nn2c1
< 10 µM	CN(C)CCN(C)S(=O)(=O)c1cccc(-c2ccc3nc(N)nn3c2)c1
< 10 µM	Nc1nc2ccc(-c3cncc(S(=O)(=O)NCC4CCC4)c3)cn2n1
< 10 µM	Nc1nc2ccc(-c3cncc(S(=O)(=O)Nc4cccc(OC(F)(F)F)c4)c3)cn2n1
< 10 µM	CC(C)(NS(=O)(=O)c1cncc(-c2ccc3nc(N)nn3c2)c1)c1ccccc1
< 10 µM	Nc1nc2ccc(-c3cncc(S(=O)(=O)N4CCc5ccccc5C4)c3)cn2n1
< 10 µM	Nc1nc2ccc(-c3cncc(S(=O)(=O)NCc4ccccc4)c3)cn2n1
< 10 µM	Nc1nc2ccc(-c3cncc(S(=O)(=O)NCC4CCCC4)c3)cn2n1
< 10 µM	Nc1nc2ccc(-c3cncc(S(=O)(=O)Nc4cccc(C(F)(F)F)c4)c3)cn2n1
< 10 µM	Nc1nc2ccc(-c3cncc(S(=O)(=O)Nc4ccccc4C(F)(F)F)c3)cn2n1

IC50	Structure (SMILES)
< 10 µM	CC(C)(NS(=O)(=O)c1cncc(-c2ccc3nc(N)nn3c2)c1)c1ccc(F)cc1
< 10 µM	CN(C)CCCNS(=O)(=O)c1cncc(-c2ccc3nc(N)nn3c2)c1
< 10 µM	CC1(NS(=O)(=O)c2cncc(-c3ccc4nc(N)nn4c3)c2)CCC1
< 10 µM	CCCCN(C)S(=O)(=O)c1cncc(-c2ccc3nc(N)nn3c2)c1
< 10 µM	Nc1nc2ccc(-c3ccc(S(N)(=O)=O)cc3)cn2n1
< 10 µM	Nc1nc2ccc(-c3cccc(F)c3)cn2n1
< 10 µM	Nc1nc2ccc(-c3cncc(NS(=O)(=O)Cc4ccccc4C(F)(F)F)c3)cn2n1
< 10 µM	NC(=O)c1ccc(-c2ccc3nc(N)nn3c2)cc1
< 10 µM	CC(C)c1ccc(S(=O)(=O)Nc2cncc(-c3ccc4nc(N)nn4c3)c2)cc1
< 10 µM	Nc1nc2c(F)cc(-c3cncc(S(=O)(=O)NCC(F)(F)F)c3)cn2n1
< 10 µM	CS(=O)(=O)c1cccc(-c2cc(F)c3nc(N)nn3c2)c1
< 10 µM	CCNS(=O)(=O)c1cncc(-c2ccc3nc(N)nn3c2)c1
< 10 µM	COc1ccc(NS(=O)(=O)c2cncc(-c3ccc4nc(N)nn4c3)c2)cc1
< 10 µM	Nc1nc2ccc(-c3ccccc3)cn2n1
< 10 µM	Nc1nc2ccc(-c3cccs3)cn2n1
< 10 µM	Nc1nc2ccc(-c3cncc(S(=O)(=O)Nc4ccccc4)c3)cn2n1
< 10 µM	Nc1nc2ccc(-c3cncc(S(=O)(=O)N4CCC(F)CC4)c3)cn2n1
< 10 µM	CN1CCN(S(=O)(=O)c2cncc(-c3ccc4nc(N)nn4c3)c2)CC1
